Laboratory results published in patent publication US11458171B2, “Engineering stem cells for cancer therapy” (CHINA MEDICAL UNIVERSITY, priority 2018, dated 2022).

Tested on: UMSCs
Assay: Effect of GCV on plain UMSCs
Format: cell-based, human
Conditions: GCV alone on unmodified UMSCs

Nc1nc(O)c2ncn(COC(CO)CO)c2n1 [GCV, ganciclovir]
cell proliferation of UMSCs: did not affect cell proliferation
